US9879303B2, “Chromogenic glucuronidase substrates and uses” (Glycosynth Limited, priority 2013, dated 2018)
Structures can show the parent of a compound that is named as a salt.

Test system: E. coli clinical isolates
Assay: screen of strains in broth medium containing FAC
Format: cell-based
Set-up: key to colour: Red, Green, Black or Purple mean strong colour; Red, Green, Black or Purple mean strong colour; Red, Green, Black or Purple mean strong colour; Red, Green, Black or Purple mean strong colour; +/− means less colour than strong; Tr means a trace of colour, less than +/−; — means no colour
Conditions: for colour: 37° C. 18 hours
Source text: In order to obtain a fuller picture of the sensitivity of the substrates, they were screened with 100 different clinical isolates of E. coli in a liquid medium containing FAC. The isolates were chosen at random from the Microbiology Department, Freeman Hospital, Newcastle Upon Tyne, UK. The effectiveness of the new substrates was compared with three other media which all contained indoxyl-β-D-glucuronides. One was a commercial medium, CPS ID 3 (bioMérieux SA, Lyon, France). […] This medium was employed as a control. Among the β-D-glucuronidase producing strains of E. coli there is a large variation in the quantity of the enzyme produced and it is almost certain that the CPS ID 3 medium has been rigorously optimised to allow good growth of all the target organisms and maximum expression of the target enzymes. Therefore, two indoxyl glucuronides, X-β-D-glucuronide CHA salt and Rose-β-D-glucuronide CHA salt were also tested in a simple agar medium to allow a direct comparison of the sensitivity of these Indoxyl glucuronides when used in a medium that has not been optimised for the growth of the target organism. The comparison of the results for Rose-β-D-glucuronide and the CPS ID 3 medium was of particular significance as the commercial medium also uses Rose-β-D-glucuronide for the detection of E. coli. For consistency, the four glucuronides were all chosen as their CHA salts. As already stated, it is not anticipated that the salt form is critical to their performance. Currently. X-β-D-glucuronide is often used as either the CHA salt or the sodium salt. Brenner and colleagues [K. P. Brenner et al, Appl. Environ. Microbiol., 59, 3534-3544, (1993)] found no difference in the performance of the CHA and sodium salt forms with their application using indoxyl-β-D-glucuronide, neither in respect of colour development nor in the recovery of E. coli.
The two indoxyl glucuronides used produce insoluble endpoints following hydrolysis, as does the CPS ID 3 medium. It was therefore necessary to test these two substrates on agar plates. In contrast, catechol-β-D-glucuronide (1) and DHN-β-D-glucuronide (2b) give much more soluble endpoints best suited to liquid media and were therefore tested in a broth medium. Each broth was prepared using proteose peptone (Oxoid, Basingstoke, UK) (2 g), NaCl (1 g) and FAC (100 mg) in DI water (180 mL). This mixture was autoclaved and cooled to room temperature before being dispensed into bijoux (100×1.8 mL). Catechol β-D-glucuronide CHA salt (1) or DHN-β-D-glucuronide CHA salt (2b) (60 mg) were each dissolved in water (20 mL) and filtered to sterilize before being aseptically dispensed into successive bijoux (0.2 mL) containing the broth solution. The broth/substrate solutions were then inoculated with bacterial suspensions made up to 0.5 McFarland standard (2 μL per bijoux). X-β-D-glucuronide CHA salt (Glycosynth Ltd, Warrington, UK) (10 mg) was dissolved in NMP (200 μL). Rose-β-D-glucuronide CHA salt (Glycosynth Ltd, Warrington, UK) (20 mg) was dissolved in NMP (200 μL). These solutions were then added to Columbia agar (Oxoid, Basingstoke, UK) (100 mL) and inoculated with bacterial suspensions made up to 0.5 McFarland standard (1 μL). The plates and broths were incubated at 37° C. for 18 hours in air.

[1] = 100 E. coli strains after 18 h incubation, broth

**Q.** With `O=C(O)C1OC(Oc2cc3ccccc3cc2O)C(O)C(O)C1O` [Compound 2b, DHN-β-D-Glucuronide CHA Salt] as the molecule, how does the “% Sensitivity” value [1] read?
**A.** 82%

**Q.** And the Negative strains [1]?
**A.** 18

**Q.** What about the Positive strains [1] of the same molecule?
**A.** 82

**Q.** What about the colour (E. coli 260262P, broth) of the same molecule?
**A.** Purple

**Q.** And the colour (E. coli 260280Z, broth)?
**A.** Purple

**Q.** And the colour (E. coli 260310H, broth)?
**A.** Purple

**Q.** What about the colour (E. coli 260313A, broth) of the same molecule?
**A.** —

**Q.** What about the colour (E. coli 260316T, broth) of the same molecule?
**A.** —

**Q.** And the colour (E. coli 260327V, broth)?
**A.** Purple

**Q.** And the colour (E. coli 260330Y, broth)?
**A.** Purple

**Q.** What about the colour (E. coli 260333P, broth) of the same molecule?
**A.** —

**Q.** And the colour (E. coli 260345F, broth)?
**A.** Purple

**Q.** What about the colour (E. coli 260348K, broth) of the same molecule?
**A.** Purple

**Q.** And the colour (E. coli 260354W, broth)?
**A.** Purple

**Q.** What about the colour (E. coli 260364H, broth) of the same molecule?
**A.** —

**Q.** And the colour (E. coli 260370C, broth)?
**A.** Purple

**Q.** What about the colour (E. coli 260375E, broth) of the same molecule?
**A.** Purple

**Q.** And the colour (E. coli 260390B, broth)?
**A.** —

**Q.** And the colour (E. coli 260396Z, broth)?
**A.** Purple

**Q.** What about the colour (E. coli 260398Q, broth) of the same molecule?
**A.** Purple

**Q.** What about the colour (E. coli 260400N, broth) of the same molecule?
**A.** —

**Q.** What about the colour (E. coli 260401Q, broth) of the same molecule?
**A.** Purple

**Q.** What about the colour (E. coli 260402H, broth) of the same molecule?
**A.** Purple

**Q.** And the colour (E. coli 260404W, broth)?
**A.** Purple

**Q.** And the colour (E. coli 260405P, broth)?
**A.** Purple

**Q.** And the colour (E. coli 260406A, broth)?
**A.** —

**Q.** And the colour (E. coli 260406Y, broth)?
**A.** Purple

**Q.** What about the colour (E. coli 260407F, broth) of the same molecule?
**A.** Purple

**Q.** What about the colour (E. coli 260408C, broth) of the same molecule?
**A.** Purple

**Q.** And the colour (E. coli 260411Z, broth)?
**A.** Purple

**Q.** And the colour (E. coli 260412Q, broth)?
**A.** Purple

**Q.** And the colour (E. coli 260414H, broth)?
**A.** Purple

**Q.** What about the colour (E. coli 260415Y, broth) of the same molecule?
**A.** Purple

**Q.** And the colour (E. coli 260416W, broth)?
**A.** Purple

**Q.** And the colour (E. coli 260417P, broth)?
**A.** Purple

**Q.** What about the colour (E. coli 260422Y, broth) of the same molecule?
**A.** Purple

**Q.** And the colour (E. coli 260424P, broth)?
**A.** Purple

**Q.** What about the colour (E. coli 260425A, broth) of the same molecule?
**A.** Purple

**Q.** And the colour (E. coli 260426F, broth)?
**A.** Purple

**Q.** And the colour (E. coli 260428T, broth)?
**A.** Purple

**Q.** And the colour (E. coli 260431N, broth)?
**A.** Purple

**Q.** And the colour (E. coli 260432E, broth)?
**A.** Purple

**Q.** And the colour (E. coli 260433H, broth)?
**A.** Purple

**Q.** And the colour (E. coli 260434Y, broth)?
**A.** Purple

**Q.** And the colour (E. coli 260435W, broth)?
**A.** Purple

**Q.** What about the colour (E. coli 260436P, broth) of the same molecule?
**A.** Purple

**Q.** What about the colour (E. coli 260437A, broth) of the same molecule?
**A.** —

**Q.** And the colour (E. coli 260438F, broth)?
**A.** Purple

**Q.** And the colour (E. coli 260439C, broth)?
**A.** Purple

**Q.** What about the colour (E. coli 260440S, broth) of the same molecule?
**A.** Purple

**Q.** What about the colour (E. coli 260441G, broth) of the same molecule?
**A.** Purple

**Q.** What about the colour (E. coli 260458Y, broth) of the same molecule?
**A.** Purple

**Q.** What about the colour (E. coli 260459W, broth) of the same molecule?
**A.** Purple

**Q.** What about the colour (E. coli 260463D, broth) of the same molecule?
**A.** Purple

**Q.** What about the colour (E. coli 260464G, broth) of the same molecule?
**A.** Purple

**Q.** And the colour (E. coli 260471B, broth)?
**A.** —

**Q.** What about the colour (E. coli 260478N, broth) of the same molecule?
**A.** —

**Q.** What about the colour (E. coli 260479Q, broth) of the same molecule?
**A.** Purple

**Q.** What about the colour (E. coli 260480M, broth) of the same molecule?
**A.** Purple

**Q.** And the colour (E. coli 260481J, broth)?
**A.** Purple

**Q.** What about the colour (E. coli 260483R, broth) of the same molecule?
**A.** —

**Q.** What about the colour (E. coli 260485D, broth) of the same molecule?
**A.** Purple

**Q.** And the colour (E. coli 260486L, broth)?
**A.** Purple

**Q.** And the colour (E. coli 260492J, broth)?
**A.** Purple

**Q.** And the colour (E. coli 260494B, broth)?
**A.** Purple

**Q.** What about the colour (E. coli 260495R, broth) of the same molecule?
**A.** Purple

**Q.** What about the colour (E. coli 260497D, broth) of the same molecule?
**A.** Purple

**Q.** What about the colour (E. coli 260502G, broth) of the same molecule?
**A.** Purple

**Q.** What about the colour (E. coli 260503Z, broth) of the same molecule?
**A.** Purple

**Q.** And the colour (E. coli 260504N, broth)?
**A.** Purple

**Q.** What about the colour (E. coli 260505Q, broth) of the same molecule?
**A.** —

**Q.** What about the colour (E. coli 260506E, broth) of the same molecule?
**A.** Purple

**Q.** And the colour (E. coli 260508Y, broth)?
**A.** Purple

**Q.** And the colour (E. coli 260509W, broth)?
**A.** Purple

**Q.** What about the colour (E. coli 260510R, broth) of the same molecule?
**A.** Purple

**Q.** What about the colour (E. coli 260511X, broth) of the same molecule?
**A.** Purple

**Q.** What about the colour (E. coli 260514G, broth) of the same molecule?
**A.** —

**Q.** And the colour (E. coli 260515Z, broth)?
**A.** Purple

**Q.** And the colour (E. coli 260521S, broth)?
**A.** Purple

**Q.** And the colour (E. coli 260522Z, broth)?
**A.** Purple

**Q.** And the colour (E. coli 260532S, broth)?
**A.** Purple

**Q.** And the colour (E. coli 260533G, broth)?
**A.** Purple

**Q.** What about the colour (E. coli 260536Q, broth) of the same molecule?
**A.** Purple

**Q.** What about the colour (E. coli 260537E, broth) of the same molecule?
**A.** —

**Q.** What about the colour (E. coli 260538H, broth) of the same molecule?
**A.** —

**Q.** And the colour (E. coli 260539Y, broth)?
**A.** Purple

**Q.** What about the colour (E. coli 260541R, broth) of the same molecule?
**A.** Purple

**Q.** And the colour (E. coli 260545G, broth)?
**A.** Purple

**Q.** What about the colour (E. coli 260547N, broth) of the same molecule?
**A.** Purple

**Q.** And the colour (E. coli 260548Q, broth)?
**A.** Purple

**Q.** What about the colour (E. coli 260549E, broth) of the same molecule?
**A.** Purple

**Q.** What about the colour (E. coli 260553X, broth) of the same molecule?
**A.** —

**Q.** What about the colour (E. coli 260554D, broth) of the same molecule?
**A.** Purple

**Q.** What about the colour (E. coli 260555L, broth) of the same molecule?
**A.** Purple

**Q.** What about the colour (E. coli 260563B, broth) of the same molecule?
**A.** Purple

**Q.** What about the colour (E. coli 260564R, broth) of the same molecule?
**A.** Purple

**Q.** What about the colour (E. coli 260578D, broth) of the same molecule?
**A.** —

**Q.** And the colour (E. coli 2603121P, broth)?
**A.** —

**Q.** What about the colour (E. coli 2604399E, broth) of the same molecule?
**A.** Purple

**Q.** And the colour (E. coli O157 non-toxigenic, broth)?
**A.** —

**Q.** What about the “colour of positive solutions” value (broth with FAC, in words) of the same molecule?
**A.** purple solutions
